In US9340590B2 (priority 2011, dated 2016) one finds IC50 data, which are given here for five compounds.

Holding throughout (assay): cell-based
The target of one test is hNav1.7 (Homo sapiens, UniProt Q15858). It counts as cell-based.
A further test concerns the target hNav1.5 (Homo sapiens, UniProt Q14524). The settings on record: IonWorks Quattro, read-out: IWQ Use Nav1.5. A general note: The patch-clamp technique gives a direct electrical read-out from membranes.
A further test deals with hNav1.3 (Homo sapiens, UniProt Q9NY46). The note with it: IonWorks Quattro, read-out: IWQ Use Nav1.3.
The mark [1] stands for this setting: IonWorks Quattro, use-dependent block, hNav1.7, read-out: IWQ Use Nav1.7.

Like-named read-outs stand apart in the source and are kept apart here. Positions of bridges follow the written chain, without caps; N, C: chain ends. Non-standard residues stand in square brackets, D forms with d. Residues, ends and D or L forms follow the SMILES beside them. Phe(4-COOH) = N[C@@H](Cc1ccc(C(=O)O)cc1)C(=O)O; 1Nal = N[C@@H](Cc1cccc2ccccc12)C(=O)O; 2Nal = N[C@@H](Cc1ccc2ccccc2c1)C(=O)O; 2Pal = N[C@@H](Cc1ccccn1)C(=O)O Bounds are passed on as bounds.

Chain of hNav1.7 (Q15858 whole entry, looked up): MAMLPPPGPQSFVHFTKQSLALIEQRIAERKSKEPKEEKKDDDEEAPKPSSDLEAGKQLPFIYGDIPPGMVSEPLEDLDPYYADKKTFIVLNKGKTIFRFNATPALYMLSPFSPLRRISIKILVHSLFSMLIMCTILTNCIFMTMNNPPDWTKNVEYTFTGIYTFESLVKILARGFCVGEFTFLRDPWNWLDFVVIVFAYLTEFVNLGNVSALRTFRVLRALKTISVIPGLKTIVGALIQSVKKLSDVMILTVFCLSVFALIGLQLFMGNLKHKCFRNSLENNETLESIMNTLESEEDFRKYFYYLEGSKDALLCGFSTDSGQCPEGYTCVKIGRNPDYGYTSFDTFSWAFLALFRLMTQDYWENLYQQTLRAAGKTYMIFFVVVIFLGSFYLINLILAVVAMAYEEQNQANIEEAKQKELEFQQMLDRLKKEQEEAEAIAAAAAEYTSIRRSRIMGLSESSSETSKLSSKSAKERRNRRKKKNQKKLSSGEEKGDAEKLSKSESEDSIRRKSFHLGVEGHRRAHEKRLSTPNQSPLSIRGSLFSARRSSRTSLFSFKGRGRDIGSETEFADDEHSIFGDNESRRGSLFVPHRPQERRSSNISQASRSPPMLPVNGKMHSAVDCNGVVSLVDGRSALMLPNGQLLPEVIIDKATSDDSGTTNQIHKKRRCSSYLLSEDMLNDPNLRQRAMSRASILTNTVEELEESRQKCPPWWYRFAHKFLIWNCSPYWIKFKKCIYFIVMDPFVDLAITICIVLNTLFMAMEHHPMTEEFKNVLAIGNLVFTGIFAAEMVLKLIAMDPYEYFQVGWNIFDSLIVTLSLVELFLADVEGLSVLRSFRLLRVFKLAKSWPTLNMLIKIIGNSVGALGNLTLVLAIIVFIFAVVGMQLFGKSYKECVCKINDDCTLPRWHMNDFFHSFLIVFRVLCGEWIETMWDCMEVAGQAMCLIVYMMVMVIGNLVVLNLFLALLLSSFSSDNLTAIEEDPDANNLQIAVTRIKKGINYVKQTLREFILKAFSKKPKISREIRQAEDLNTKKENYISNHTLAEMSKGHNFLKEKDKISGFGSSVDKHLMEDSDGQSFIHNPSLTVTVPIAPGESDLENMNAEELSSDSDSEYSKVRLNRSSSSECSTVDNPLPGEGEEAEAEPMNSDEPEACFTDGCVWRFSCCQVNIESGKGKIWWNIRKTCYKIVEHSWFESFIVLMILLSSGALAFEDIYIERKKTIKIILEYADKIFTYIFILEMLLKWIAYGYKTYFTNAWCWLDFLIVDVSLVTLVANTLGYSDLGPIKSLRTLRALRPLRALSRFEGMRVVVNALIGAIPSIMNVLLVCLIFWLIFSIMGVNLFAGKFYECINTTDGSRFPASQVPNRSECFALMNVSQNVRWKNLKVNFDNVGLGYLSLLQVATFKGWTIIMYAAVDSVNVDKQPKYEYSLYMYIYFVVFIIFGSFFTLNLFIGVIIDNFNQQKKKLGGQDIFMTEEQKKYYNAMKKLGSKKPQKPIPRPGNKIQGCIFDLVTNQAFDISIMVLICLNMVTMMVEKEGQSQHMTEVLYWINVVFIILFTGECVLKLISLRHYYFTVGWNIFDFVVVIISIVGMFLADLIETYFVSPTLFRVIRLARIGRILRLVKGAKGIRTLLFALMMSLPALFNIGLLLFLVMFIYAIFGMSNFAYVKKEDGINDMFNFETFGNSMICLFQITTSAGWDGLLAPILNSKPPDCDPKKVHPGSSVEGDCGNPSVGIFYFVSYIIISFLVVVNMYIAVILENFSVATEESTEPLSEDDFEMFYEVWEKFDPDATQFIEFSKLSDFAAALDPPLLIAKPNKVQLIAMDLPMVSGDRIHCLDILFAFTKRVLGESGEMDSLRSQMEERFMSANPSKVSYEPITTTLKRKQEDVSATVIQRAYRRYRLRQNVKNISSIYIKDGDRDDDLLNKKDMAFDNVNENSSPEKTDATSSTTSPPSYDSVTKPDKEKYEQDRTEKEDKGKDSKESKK
Chain of hNav1.5 (Q14524 whole entry, looked up): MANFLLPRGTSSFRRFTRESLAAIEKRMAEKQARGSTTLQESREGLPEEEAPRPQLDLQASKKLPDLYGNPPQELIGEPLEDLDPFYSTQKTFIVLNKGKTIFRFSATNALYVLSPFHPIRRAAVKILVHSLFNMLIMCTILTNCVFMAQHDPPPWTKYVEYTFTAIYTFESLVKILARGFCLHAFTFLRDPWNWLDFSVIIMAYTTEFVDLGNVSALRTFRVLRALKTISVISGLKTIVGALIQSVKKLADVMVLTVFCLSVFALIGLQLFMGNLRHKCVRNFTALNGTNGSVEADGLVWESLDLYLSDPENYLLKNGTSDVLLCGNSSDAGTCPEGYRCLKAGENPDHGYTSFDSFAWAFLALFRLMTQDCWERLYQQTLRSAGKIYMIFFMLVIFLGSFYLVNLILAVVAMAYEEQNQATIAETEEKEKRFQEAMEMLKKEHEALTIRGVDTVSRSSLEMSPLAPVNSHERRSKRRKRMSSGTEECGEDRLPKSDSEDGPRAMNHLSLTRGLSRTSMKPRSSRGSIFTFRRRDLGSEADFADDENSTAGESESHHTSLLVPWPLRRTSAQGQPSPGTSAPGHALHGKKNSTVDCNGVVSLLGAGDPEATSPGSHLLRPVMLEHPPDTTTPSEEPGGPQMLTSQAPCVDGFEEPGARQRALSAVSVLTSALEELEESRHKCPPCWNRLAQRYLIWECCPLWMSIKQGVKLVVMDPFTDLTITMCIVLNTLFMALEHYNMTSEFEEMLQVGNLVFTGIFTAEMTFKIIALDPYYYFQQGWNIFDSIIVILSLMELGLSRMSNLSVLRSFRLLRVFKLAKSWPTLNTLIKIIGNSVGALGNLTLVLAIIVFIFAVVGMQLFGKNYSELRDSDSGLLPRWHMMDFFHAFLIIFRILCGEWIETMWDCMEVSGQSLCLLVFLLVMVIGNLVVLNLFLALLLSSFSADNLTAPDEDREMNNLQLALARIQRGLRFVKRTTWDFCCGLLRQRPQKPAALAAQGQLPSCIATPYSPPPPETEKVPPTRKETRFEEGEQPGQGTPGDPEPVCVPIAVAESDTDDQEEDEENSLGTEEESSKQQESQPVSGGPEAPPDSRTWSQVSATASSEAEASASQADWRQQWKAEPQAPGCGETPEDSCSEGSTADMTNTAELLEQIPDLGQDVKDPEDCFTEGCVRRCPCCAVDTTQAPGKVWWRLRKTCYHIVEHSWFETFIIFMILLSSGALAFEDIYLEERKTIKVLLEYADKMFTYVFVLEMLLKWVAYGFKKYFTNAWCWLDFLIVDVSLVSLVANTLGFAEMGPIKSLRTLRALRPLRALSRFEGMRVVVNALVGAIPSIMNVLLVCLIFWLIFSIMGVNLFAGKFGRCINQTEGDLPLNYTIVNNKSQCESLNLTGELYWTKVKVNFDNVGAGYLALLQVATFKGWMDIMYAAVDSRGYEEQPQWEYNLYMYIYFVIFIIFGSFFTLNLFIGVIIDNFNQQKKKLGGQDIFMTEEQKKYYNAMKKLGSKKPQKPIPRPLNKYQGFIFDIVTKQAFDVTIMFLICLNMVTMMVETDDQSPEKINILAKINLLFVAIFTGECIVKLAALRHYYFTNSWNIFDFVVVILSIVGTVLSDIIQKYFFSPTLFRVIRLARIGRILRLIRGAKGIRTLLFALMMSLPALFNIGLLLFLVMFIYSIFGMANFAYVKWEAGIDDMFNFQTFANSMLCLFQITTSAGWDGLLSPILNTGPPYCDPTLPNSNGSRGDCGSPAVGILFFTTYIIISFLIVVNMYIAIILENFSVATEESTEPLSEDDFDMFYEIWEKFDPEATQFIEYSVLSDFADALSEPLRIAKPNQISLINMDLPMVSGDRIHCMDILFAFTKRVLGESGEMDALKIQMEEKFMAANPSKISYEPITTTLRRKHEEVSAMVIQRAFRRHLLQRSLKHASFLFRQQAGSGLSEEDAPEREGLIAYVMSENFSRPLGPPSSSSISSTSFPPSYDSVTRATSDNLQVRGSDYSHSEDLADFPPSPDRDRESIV

On to `CC[C@H](C)[C@@H]1NC(=O)[C@@H]2CSSC[C@@H]3NC(=O)[C@H](C(C)C)NC(=O)[C@H](CC(C)C)NC(=O)[C@H](CC(N)=O)NC(=O)[C@@H]4CCCN4C(=O)[C@H](CCCNC(=N)N)NC(=O)[C@H](CSSC[C@H](NC(=O)[C@@H](N)CC(=O)O)C(=O)N[C@@H](CC(C)C)C(=O)NCC(=O)N[C@@H](Cc4ccccc4)C(=O)N[C@@H](CCSC)C(=O)N[C@@H](CCCNC(=N)N)C(=O)N[C@@H](CCCCN)C(=O)N2)NC(=O)[C@H](CSSC[C@@H](C(=O)N[C@@H](CCCCN)C(=O)N[C@@H](Cc2ccc(O)cc2)C(=O)N[C@@H](Cc2ccc(C(=O)O)cc2)C(=O)N[C@@H](Cc2ccccc2)C(N)=O)NC(=O)[C@H](Cc2c[nH]c4ccccc24)NC(=O)[C@H](CCCCN)NC(=O)[C@H](Cc2c[nH]cn2)NC(=O)[C@H]([C@@H](C)O)NC(=O)[C@H](CCCNC(=N)N)NC(=O)[C@H](CO)NC3=O)NC(=O)[C@H](CCCCN)NC(=O)[C@H](CC(=O)O)NC(=O)[C@H](CC(N)=O)NC(=O)[C@H](CC(=O)O)NC(=O)[C@@H]2CCCN2C1=O` [compound 403] (H-DCLGFMRKCIPDNDKCCRPNLVCSRTHKWCKY[Phe(4-COOH)]F-NH2; disulfide 2-17, 9-23, 16-30), for which the IC50 on hNav1.7 (Table 26, IonWorks Quattro, use, […], read-out: IWQ Use Nav1.7) worked out at 0.16 µM; on hNav1.5 (Table 26, use, […]), 9.06 µM; at hNav1.3 (Table 26, use, […]), 0.31 µM.

`CC[C@H](C)[C@@H]1NC(=O)[C@@H]2CSSC[C@@H]3NC(=O)[C@H](C(C)C)NC(=O)[C@H](CC(C)C)NC(=O)[C@H](CC(N)=O)NC(=O)[C@@H]4CCCN4C(=O)[C@H](CCCNC(=N)N)NC(=O)[C@H](CSSC[C@H](NC(=O)[C@@H](N)CC(=O)O)C(=O)N[C@@H](CC(C)C)C(=O)NCC(=O)N[C@@H](Cc4ccccc4)C(=O)N[C@@H](CCSC)C(=O)N[C@@H](CCCNC(=N)N)C(=O)N[C@@H](CCCCN)C(=O)N2)NC(=O)[C@H](CSSC[C@@H](C(=O)N[C@@H](CCCCN)C(=O)N[C@@H](Cc2ccc(O)cc2)C(=O)N[C@H](C(=O)N[C@@H](Cc2ccccn2)C(N)=O)C(C)C)NC(=O)[C@H](Cc2c[nH]c4ccccc24)NC(=O)[C@H](CCCCN)NC(=O)[C@H](Cc2c[nH]cn2)NC(=O)[C@H]([C@@H](C)O)NC(=O)[C@H](CCCNC(=N)N)NC(=O)[C@H](CO)NC3=O)NC(=O)[C@H](CCCCN)NC(=O)[C@H](CC(=O)O)NC(=O)[C@H](CC(N)=O)NC(=O)[C@H](CC(=O)O)NC(=O)[C@@H]2CCCN2C1=O` [compound 411] (H-DCLGFMRKCIPDNDKCCRPNLVCSRTHKWCKYV[2Pal]-NH2; disulfide 2-17, 9-23, 16-30): the IC50 on hNav1.7 (IonWorks Quattro, use-dependent, […], read-out: IWQ Use Nav1.7) came out at 5.82 µM; at hNav1.5 (use-dependent, […]), 8.16 µM; at hNav1.3 (use-dependent, […]) it was 4.83 µM.

For the compound `CC[C@H](C)[C@@H]1NC(=O)[C@@H]2CSSC[C@@H]3NC(=O)[C@H](C(C)C)NC(=O)[C@H](CC(C)C)NC(=O)[C@H](CC(N)=O)NC(=O)[C@@H]4CCCN4C(=O)[C@H](CCCNC(=N)N)NC(=O)[C@H](CSSC[C@H](NC(=O)[C@@H](N)CC(=O)O)C(=O)N[C@@H](CC(C)C)C(=O)NCC(=O)N[C@@H](Cc4ccc5ccccc5c4)C(=O)N[C@@H](CCSC)C(=O)N[C@@H](CCCNC(=N)N)C(=O)N[C@@H](CCCCN)C(=O)N2)NC(=O)[C@H](CSSC[C@@H](C(=O)N[C@@H](CCCCN)C(=O)N[C@@H](Cc2ccc(O)cc2)C(=O)N[C@H](C(=O)N[C@@H](Cc2cccc4ccccc24)C(N)=O)C(C)C)NC(=O)[C@H](Cc2c[nH]c4ccccc24)NC(=O)[C@H](CCCCN)NC(=O)[C@H](Cc2c[nH]cn2)NC(=O)[C@H]([C@@H](C)O)NC(=O)[C@H](CCCNC(=N)N)NC(=O)[C@H](CO)NC3=O)NC(=O)[C@H](CCCCN)NC(=O)[C@H](CC(=O)O)NC(=O)[C@H](CC(N)=O)NC(=O)[C@H](CC(=O)O)NC(=O)[C@@H]2CCCN2C1=O` [compound 137] (H-DCLG[2Nal]MRKCIPDNDKCCRPNLVCSRTHKWCKYV[1Nal]-NH2; disulfide 2-17, 9-23, 16-30), the IC50 on hNav1.7 (setting [1]) stood at 0.11 µM; on hNav1.5 (use-dependent block, hNav1.5), 3.15 µM; on hNav1.3 (use-dependent block, hNav1.3), 0.02 µM.

Regarding `CC[C@H](C)[C@@H]1NC(=O)[C@@H]2CSSC[C@@H]3NC(=O)[C@H](C(C)C)NC(=O)[C@H](CC(C)C)NC(=O)[C@H](CC(N)=O)NC(=O)[C@@H]4CCCN4C(=O)[C@H](CCCNC(=N)N)NC(=O)[C@H](CSSC[C@H](NC(=O)[C@@H](N)CC(=O)O)C(=O)N[C@@H](CC(C)C)C(=O)NCC(=O)N[C@@H](C)C(=O)N[C@@H](Cc4ccccc4)C(=O)N[C@@H](CCCNC(=N)N)C(=O)N[C@@H](CCCCN)C(=O)N2)NC(=O)[C@H](CSSC[C@@H](C(=O)N[C@@H](CCCCN)C(=O)N[C@@H](Cc2ccc(O)cc2)C(=O)N[C@H](C(=O)N[C@@H](Cc2ccccc2)C(=O)O)C(C)C)NC(=O)[C@H](Cc2c[nH]c4ccccc24)NC(=O)[C@H](CC(C)C)NC(=O)[C@H](Cc2c[nH]cn2)NC(=O)[C@H]([C@@H](C)O)NC(=O)[C@H](CCCNC(=N)N)NC(=O)[C@H](CO)NC3=O)NC(=O)[C@H](CCCCN)NC(=O)[C@H](CC(=O)O)NC(=O)[C@H](CC(N)=O)NC(=O)[C@H](CC(=O)O)NC(=O)[C@@H]2CCCN2C1=O` [compound 830] (H-DCLGAFRKCIPDNDKCCRPNLVCSRTHLWCKYVF-OH; disulfide 2-17, 9-23, 16-30), the IC50 was > 5 µM on hNav1.7 (setting [1]); > 5 µM at hNav1.5 (use-dependent block, hNav1.5); > 5 µM at hNav1.3 (use-dependent block, hNav1.3).

On to `CC[C@H](C)[C@@H]1NC(=O)[C@@H]2CSSC[C@@H]3NC(=O)[C@H](C(C)C)NC(=O)[C@H](CC(C)C)NC(=O)[C@H](CC(N)=O)NC(=O)[C@@H]4CCCN4C(=O)[C@H](CCCNC(=N)N)NC(=O)[C@H](CSSC[C@H](NC(=O)[C@@H](N)CC(=O)O)C(=O)N[C@@H](CC(C)C)C(=O)NCC(=O)N[C@@H](Cc4ccccc4)C(=O)N[C@@H](CCSC)C(=O)N[C@@H](CCCNC(=N)N)C(=O)N[C@@H](CCCCN)C(=O)N2)NC(=O)[C@H](CSSC[C@@H](C(=O)N[C@@H](CCCCN)C(=O)N[C@@H](Cc2ccc(O)cc2)C(=O)N[C@H](C(=O)N[C@@H](CCCNC(=N)N)C(N)=O)C(C)C)NC(=O)[C@H](Cc2c[nH]c4ccccc24)NC(=O)[C@H](CCCCN)NC(=O)[C@H](Cc2cnc[nH]2)NC(=O)[C@H]([C@@H](C)O)NC(=O)[C@H](CCCNC(=N)N)NC(=O)[C@H](CO)NC3=O)NC(=O)[C@H](CCCCN)NC(=O)[C@H](CC(=O)O)NC(=O)[C@H](CC(N)=O)NC(=O)[C@H](CC(=O)O)NC(=O)[C@@H]2CCCN2C1=O` [compound 75] (H-DCLGFMRKCIPDNDKCCRPNLVCSRTHKWCKYVR-NH2; disulfide 2-17, 9-23, 16-30), for which the IC50 amounted to 3.58 µM on hNav1.7; 8.99 µM on hNav1.5 (use-dependent, […]); 4.69 µM at hNav1.3 (use-dependent, […]).
